# From US9193731B2, “Antimicrobial compounds and methods of making and using the same” (Melinta Therapeutics, Inc., priority 2009, dated 2015)
# System: Escherichia coli strain ATCC25922
# Test: standard microdilution assay to determine minimum inhibitory concentrations (MICs)
# Assay type: cell-based
# Settings: Escherichia coli strain ATCC25922, microdilution
# How it was run: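 Broth microdilution MIC against E. coli ATCC25922, following CLSI protocols, typically in a 100 microliter final volume. Results reported as +/− relative to a 16 micrograms/ml cutoff.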
row,SMILES,E. coli ATCC25922 MIC
1,N=C(N)NCCCNCc1ccc(-n2cc3cc(-c4ccc(S(=O)(=O)N(CCCc5cnc6ncnn6c5)C5CCNCC5)cc4)[nH]c3nc2=O)cc1 [Compound 862],+ (a “+” indicates that the compound has an MIC value of 16 micrograms/ml or less)
2,N=C(N)NCCCNCc1ccc(-n2cc3cc(-c4ccc(S(=O)(=O)NC5CCN(CCF)CC5)cc4)[nH]c3nc2=O)cc1 [Compound 943],+ (a “+” indicates that the compound has an MIC value of 16 micrograms/ml or less)
3,N=C(N)NCCCNCc1ccc(-n2cc3cc(-c4ccc(C(NC5CNC5)C(F)F)cc4)[nH]c3nc2=O)cc1 (stereo not shown) [Compound 1462],+ (a “+” indicates that the compound has an MIC value of 16 micrograms/ml or less)
4,N=C(N)NCCCNCc1ccc(-c2cn3cc(CCc4cccc(OC(F)(F)F)c4)[nH]c3nc2=O)cc1 [Compound 975],− (a “−” indicates that the compound has an MIC value greater than 16 micrograms/ml)
5,NC(N)=NCCC(=O)NCc1ccc(-n2cc3cc(-c4ccc(S(=O)(=O)N(CCOc5ccc(F)cc5)C5CCNCC5)cc4)[nH]c3nc2=O)cc1 [Compound 1196],− (a “−” indicates that the compound has an MIC value greater than 16 micrograms/ml)
6,N=C(N)NCCCNCc1ccc(-n2cc3cc(C4CCN(CCCN)C4)[nH]c3nc2=O)cc1 (stereo not shown) [Compound 1448],+ (a “+” indicates that the compound has an MIC value of 16 micrograms/ml or less)
7,N=C(N)NCCCNCc1ccc(-n2cc3cc(-c4cccc(S(=O)(=O)N(Cc5ccc(Cl)c(Cl)c5)C5CCNCC5)c4)[nH]c3nc2=O)cc1 [Compound 979],+ (a “+” indicates that the compound has an MIC value of 16 micrograms/ml or less)
8,CSCc1cc(OCC(F)CN)cc(-c2cc3cn(-c4ccc(CNCCCNC(=N)N)cc4)c(=O)nc3[nH]2)c1 (stereo not shown) [Compound 2049a],+ (a “+” indicates that the compound has an MIC value of 16 micrograms/ml or less)
9,N=C(N)NCCCNCc1ccc(-n2cc3cc(-c4ccc(S(=O)(=O)N(Cc5cc(-c6ccc(Cl)cc6)on5)C5CCNCC5)cc4)[nH]c3nc2=O)cc1 [Compound 803],+ (a “+” indicates that the compound has an MIC value of 16 micrograms/ml or less)
10,N=C(N)NCCCNCc1ccc(-n2cc3cc(-c4ccc(S(=O)(=O)CCCNC5CCCOC5)cc4)[nH]c3nc2=O)cc1 (stereo not shown) [Compound 1275],+ (a “+” indicates that the compound has an MIC value of 16 micrograms/ml or less)
11,N=C(N)NCCCN1CC=C(n2cc3cc(-c4ccc(S(=O)(=O)N(CCCN5CCCCC5)C5CCNCC5)cc4)[nH]c3nc2=O)CC1 [Compound 960],+ (a “+” indicates that the compound has an MIC value of 16 micrograms/ml or less)
12,NC(N)=NCCC(=O)NCc1ccc(-n2cc3cc(-c4ccc(S(=O)(=O)N(Cc5ccccc5SC(F)(F)F)C5CCNCC5)cc4)[nH]c3nc2=O)cc1 [Compound 1205],− (a “−” indicates that the compound has an MIC value greater than 16 micrograms/ml)
13,N=C(N)NCCCNCc1ccc(-n2cc3cc(-c4ccc(S(=O)(=O)N(CCCC5CCCC5)C5CCNCC5)cc4)[nH]c3nc2=O)cc1 [Compound 840],+ (a “+” indicates that the compound has an MIC value of 16 micrograms/ml or less)
14,N=C(N)NCCCNCc1ccc(-n2cc3cc(CCS(=O)(=O)N(Cc4ccc(Cl)c(Cl)c4)C4CCNCC4)[nH]c3nc2=O)cc1 [Compound 913],+ (a “+” indicates that the compound has an MIC value of 16 micrograms/ml or less)
15,N=C(N)NCCCNCc1ccc(-n2cc3cc(-c4cc(OCC(F)CN)cc(-c5cccc(CN)c5)c4)[nH]c3nc2=O)cc1 (stereo not shown) [Compound 2030a],+ (a “+” indicates that the compound has an MIC value of 16 micrograms/ml or less)
16,N=C(N)NCCCNS(=O)(=O)c1ccc(-n2cc3cc(-c4ccc(S(=O)(=O)NC5CCNCC5)cc4)[nH]c3nc2=O)cc1 [Compound 1103],+ (a “+” indicates that the compound has an MIC value of 16 micrograms/ml or less)
17,COC(CN)COc1cccc(-c2cc3cn(-c4ccc(CNCCCNC(=N)N)cc4)c(=O)nc3[nH]2)c1 (stereo not shown) [Compound 1400],+ (a “+” indicates that the compound has an MIC value of 16 micrograms/ml or less)
18,N=C(N)NCCCNCc1ccc(-n2cc3cc(-c4cc(C(=O)NC5CCC(F)(F)CC5)cc(N5CCNCC5)c4)[nH]c3nc2=O)cc1 [Compound 1045],+ (a “+” indicates that the compound has an MIC value of 16 micrograms/ml or less)
19,N=C(N)N[C@@H]1CCCN(Cc2ccc(-n3cc4cc(-c5ccc(S(=O)(=O)N(Cc6ccncc6)C6CCNCC6)cc5)[nH]c4nc3=O)cc2)C1 [Compound 1177],− (a “−” indicates that the compound has an MIC value greater than 16 micrograms/ml)
20,N=C(N)NCCCCc1cc(OC(F)(F)F)cc(-c2cc3cn(-c4ccc(C(NCCCNC(=N)N)C(F)(F)F)cc4)c(=O)nc3[nH]2)c1 (stereo not shown) [Compound 2082a],+ (a “+” indicates that the compound has an MIC value of 16 micrograms/ml or less)
21,N=C(N)NCCCNCc1ccc(-n2cc3cc(-c4cccc(S(=O)(=O)N(CCN5CCCCC5)C5CCNCC5)c4)[nH]c3nc2=O)cc1 [Compound 1077],+ (a “+” indicates that the compound has an MIC value of 16 micrograms/ml or less)
22,N=C(N)NCCCNCc1ccc(-n2cc3cc(-c4ccc(S(=O)(=O)N(Cc5cc(OC(F)(F)F)ccc5F)C5CCOCC5)cc4)[nH]c3nc2=O)cc1 [Compound 879],+ (a “+” indicates that the compound has an MIC value of 16 micrograms/ml or less)
23,CC(=O)NCc1ccc(-n2cc3cc(-c4cccc(CCCN)c4)[nH]c3nc2=O)cc1 [Compound 2063a],− (a “−” indicates that the compound has an MIC value greater than 16 micrograms/ml)
24,COCCOCCN(C1CCNCC1)S(=O)(=O)c1cccc(-c2cc3cn(-c4ccc(CNCCCNC(=N)N)cc4)c(=O)nc3[nH]2)c1 [Compound 1161],+ (a “+” indicates that the compound has an MIC value of 16 micrograms/ml or less)
25,N=C(N)NCCCNC(=O)c1ccc(-n2cc3cc(-c4ccc(S(=O)(=O)NC5CCNC5)cc4)[nH]c3nc2=O)cc1 (stereo not shown) [Compound 1310],+ (a “+” indicates that the compound has an MIC value of 16 micrograms/ml or less)
26,N[C@@H]1CCCN(Cc2ccc(-n3cc4cc(-c5ccc(S(=O)(=O)NC6CCNCC6)cc5)[nH]c4nc3=O)cc2)C1 [Compound 1120],− (a “−” indicates that the compound has an MIC value greater than 16 micrograms/ml)
27,N=C(N)NCCCNCc1ccc(-n2cc3cc(-c4ccc(S(=O)(=O)N(CCOc5ccc(F)cc5)C5CCNCC5)cc4)[nH]c3nc2=O)cc1 [Compound 770],+ (a “+” indicates that the compound has an MIC value of 16 micrograms/ml or less)

# Same assay, conditions: Escherichia coli, ATCC25922, Escherichia coli strain ATCC25922, microdilution; read-out: E. coli ATCC25922 MIC
row,MIC [µg/mL],SMILES
1,> 16,O=C(NC1CCNCC1)c1c(F)cc(-c2cc3cn(-c4ccc(CNCCCF)cc4)c(=O)nc3[nH]2)cc1F [Compound 262]
2,> 16,NCCCCCN1CCC(n2cc3cc(-c4ccc(F)cc4)[nH]c3nc2=O)C1 (stereo not shown) [Compound 560]
3,> 16,NCCCNCc1ccc(-n2cc3cc(-c4cc(F)c(F)cc4F)[nH]c3nc2=O)cc1 [Compound 310]
4,< 16,NCCCNCc1ccc(-n2cc3cc(CCN)[nH]c3nc2=O)cc1 [Compound 624]
5,> 16,NCc1ccc(-n2cc3cc(-c4cccc(OCCNC(N)=O)c4)[nH]c3nc2=O)cc1 [Compound 1142]
6,< 16,N=C(N)NCCCN(CCCN)Cc1ccc(-c2cn3cc(-c4ccc(Br)cc4)[nH]c3nc2=O)cc1 [Compound 640]
7,< 16,NCCCNCc1ccc(-n2cc3cc(CCN[C@@H]4CCCNC4)[nH]c3nc2=O)cc1 [Compound 814]
8,> 16,NCc1ccc(-n2cc3cc(-c4cccc(S(=O)(=O)N(CCn5nccc5N)C5CCNCC5)c4)[nH]c3nc2=O)cc1 [Compound 1248]
9,< 16,CN(C)CCCOc1cccc(-c2cc3cn(-c4ccc(CNCCCNC(=N)N)cc4)c(=O)nc3[nH]2)c1 [Compound 1181]
10,< 16,NCCCN(CCCN)Cc1ccc(-n2cc3cc(-c4ccc(S(=O)(=O)N5CCN6CCC5CC6)c(F)c4)[nH]c3nc2=O)cc1 [Compound 231]
11,< 16,NCCCNCc1ccc(-n2cc3cc(-c4ccc(C(=O)NC5CCNCC5)cc4)[nH]c3nc2=O)cc1 [Compound 227]
12,> 16,N=C(N)NCCCCCN1CCN(c2cn3cc(-c4ccc(Br)cc4)[nH]c3nc2=O)CC1 [Compound 882]
13,> 16,NCc1ccc(-n2cc3cc(-c4cccc(OCCF)c4)[nH]c3nc2=O)cc1 [Compound 1168]
14,> 16,N=C(N)NCCCOCc1ccc(-c2cn3cc(-c4ccc(C(=O)N5CCNCC5)cc4)[nH]c3nc2=O)cc1 [Compound 932]
15,> 16,NCc1ccc(-n2cc3cc(-c4cccc(S(=O)(=O)N(CCOc5ccc(F)cc5)C5CCNCC5)c4)[nH]c3nc2=O)cc1 [Compound 1123]
16,< 16,CC(=O)NCCN1CCCC(c2cc3cn(-c4ccc(CNCCCNC(=N)N)cc4)c(=O)nc3[nH]2)C1 (stereo not shown) [Compound 2018a]
17,> 16,NCCCNCc1ccc(-n2cc3c(nc2=O)[nH]c2ccccc23)cc1 [Compound 335]
18,> 16,N=C(N)NCCCNCc1ccc(-c2cn3cc(-c4ccc(C(=O)N5CCN(CCN6CCOCC6)CC5)cc4)[nH]c3nc2=O)cc1 [Compound 684]
19,> 16,NC(=O)COc1cccc(-n2cc3cc(-c4ccc(S(=O)(=O)NC5CCNCC5)cc4)[nH]c3nc2=O)c1 [Compound 1253]
20,> 16,CN(C)Cc1cc2cn(-c3ccc(CNCCCN)cc3)c(=O)nc2[nH]1 [Compound 884]
21,> 16,O=c1nc2[nH]c(-c3ccc(F)cc3)cc2cn1C1CCNC1 (stereo not shown) [Compound 561]
22,> 16,N=C(N)NCCCOCc1ccc(-c2cn3cc(-c4ccc(Br)cc4)[nH]c3nc2=O)cc1 [Compound 901]
23,< 16,N=C(N)NCCCNC(=O)c1ccc(-n2cc3cc(-c4cc(CCCCN)cc(C(F)(F)F)c4)[nH]c3nc2=O)cc1 [Compound 2034a]
24,< 16,NCc1ccc(-n2cc3cc(-c4ccc(C(=O)NC5CCNCC5)cc4)[nH]c3nc2=O)cc1 [Compound 224]
25,> 16,NCCCNCc1ccc(-c2cn3cc(-c4ccc(C(=O)NC56CC7CC(CC(C7)C5)C6)cc4)[nH]c3nc2=O)cc1 [Compound 717]
